For three compounds, IC50 results are on record in BindingDB's records for patent US20240158408 (280 Bio, 2024).

What is called IC50 is the concentration that inhibits the measured activity by half.

The target of one assay is Phosphatidylinositol 4,5-bisphosphate 3-kinase catalytic subunit alpha isoform (Homo sapiens, UniProt P42336). Briefly: ADP-Glo Kinase Assay. Background: In ADP-Glo the light output rises with the ADP produced.
Phosphatidylinositol 4,5-bisphosphate 3-kinase catalytic subunit alpha isoform, sequence (P42336 whole entry, canonical isoform): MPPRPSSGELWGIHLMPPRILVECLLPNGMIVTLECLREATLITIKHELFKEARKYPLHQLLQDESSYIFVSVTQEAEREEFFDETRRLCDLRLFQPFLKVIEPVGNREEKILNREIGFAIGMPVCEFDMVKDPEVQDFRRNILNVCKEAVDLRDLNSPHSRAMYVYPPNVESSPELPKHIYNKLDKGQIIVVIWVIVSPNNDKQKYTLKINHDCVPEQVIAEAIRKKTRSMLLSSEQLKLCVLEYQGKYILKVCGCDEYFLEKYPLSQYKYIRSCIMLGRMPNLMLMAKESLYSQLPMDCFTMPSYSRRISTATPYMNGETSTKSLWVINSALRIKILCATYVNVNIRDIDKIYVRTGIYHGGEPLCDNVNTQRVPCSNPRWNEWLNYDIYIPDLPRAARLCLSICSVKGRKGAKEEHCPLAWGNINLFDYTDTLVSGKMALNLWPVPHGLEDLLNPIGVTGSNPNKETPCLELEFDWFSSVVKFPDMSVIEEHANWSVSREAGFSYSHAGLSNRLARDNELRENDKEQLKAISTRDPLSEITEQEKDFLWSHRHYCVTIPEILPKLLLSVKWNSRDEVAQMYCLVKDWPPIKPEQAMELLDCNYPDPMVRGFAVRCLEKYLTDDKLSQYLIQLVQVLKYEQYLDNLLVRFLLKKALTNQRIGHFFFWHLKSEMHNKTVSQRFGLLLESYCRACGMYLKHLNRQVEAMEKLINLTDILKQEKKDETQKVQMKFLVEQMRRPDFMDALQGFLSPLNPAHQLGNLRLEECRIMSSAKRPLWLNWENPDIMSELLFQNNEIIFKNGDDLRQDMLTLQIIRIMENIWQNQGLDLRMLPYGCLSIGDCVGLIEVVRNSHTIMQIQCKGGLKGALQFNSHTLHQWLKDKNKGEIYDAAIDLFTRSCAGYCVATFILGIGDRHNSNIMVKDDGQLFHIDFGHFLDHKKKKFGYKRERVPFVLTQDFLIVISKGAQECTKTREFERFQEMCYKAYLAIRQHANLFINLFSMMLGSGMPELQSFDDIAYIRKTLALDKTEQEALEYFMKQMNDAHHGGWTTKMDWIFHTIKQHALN
For `Cn1nc2c(-c3ccc4ncnn4c3C#N)cc(NC(=O)c3cc(F)cc(C(F)(F)F)c3)c3c2c1C(=O)NC3c1cc(F)ccc1Cl` (stereo unspecified) [US20240158408, Compound YL106], the IC50 is > 10 µM.
Still for that read-out and setting: the same measure for `Cn1nc2ccc(NC(=O)c3cc(F)cc(C(F)(F)F)c3)c3c2c1C(=O)NC3c1cc(Cl)ccc1Cl` (stereo unspecified) [US20240158408, Compound YL104]: > 10 µM; for `Cn1nc2c(-c3ccc4ncnn4c3C#N)cc(NC(=O)c3cc(F)cc(C(F)(F)F)c3)c3c2c1C(=O)NC3c1cc(Cl)ccc1Cl` (stereo unspecified) [US20240158408, Compound YL107]: > 10 µM.

In a further assay the target is Phosphatidylinositol 4,5-bisphosphate 3-kinase catalytic subunit alpha isoform [H1047R] (Homo sapiens, UniProt P42336, H1047R).
Phosphatidylinositol 4,5-bisphosphate 3-kinase catalytic subunit alpha isoform [H1047R], sequence (P42336 whole entry H1047R, canonical isoform): as the sequence (P42336 whole entry, canonical isoform) above, with H1047R counted along it
Assay: not given
For the compound `Cn1nc2c(-c3ccc4ncnn4c3C#N)cc(NC(=O)c3cc(F)cc(C(F)(F)F)c3)c3c2c1C(=O)NC3c1cc(F)ccc1Cl` (stereo unspecified) [US20240158408, Compound YL106], the IC50 was < 0.25 µM.
Consider `Cn1nc2ccc(NC(=O)c3cc(F)cc(C(F)(F)F)c3)c3c2c1C(=O)NC3c1cc(Cl)ccc1Cl` (stereo unspecified) [US20240158408, Compound YL104], for which the half-maximal inhibitory concentration (IC50) is < 0.25 µM.
Take `Cn1nc2c(-c3ccc4ncnn4c3C#N)cc(NC(=O)c3cc(F)cc(C(F)(F)F)c3)c3c2c1C(=O)NC3c1cc(Cl)ccc1Cl` (stereo unspecified) [US20240158408, Compound YL107]: the IC50 was < 0.25 µM.
